Measurements as given in patent US12133846B2, “Electrophilic androgen receptor (AR) antagonists for AR downregulation and ferroptosis induction in cancer cells” (priority 2019, dated 2024).

Legend:
FL AR and AR-V7 [1] = assay: Cycloheximide chase of AR protein stability in VCaP cells; format: cell-based; details: cycloheximide 25 μg/mL, 2-63 10 μM, 2-16 h
Experimental: (§1) FL AR is a client protein of Hsp90, and AR-V7 might be chaperoned by Hsps other than Hsp90 (Moses, et al., Cancer Res. 2018, 78, 4022-4035). Because Hsp70 upregulation is an indicator of heat shock protein disruption (Kitson, et al., Nat. Chem. 2013, 5, 307-314) that causes client protein degradation, it was assessed whether 2-63 could change the protein stability of AR and AR-V7. […] 2-63-induced AR/AR-V7 downregulation was partially rescued by the proteasome inhibitor MG-132 (data not shown). This supports the involvement of proteasome degradation in AR reduction. Besides the posttranslational mechanisms, AR downregulation could also be caused by suppressing transcription factors (TFs) that drive the transcription of the AR gene. Sp1 and c-Myc were selected as representatives that could be affected by 2-63. Multiple Sp1 binding sites are located near the transcriptional initiation region of the AR gene.
(§2) Western Blotting. […] The protein concentration of supernatants was determined using the Pierce BCA Protein Assay Kit (Thermo Fisher, Cat #23225). […] The blots were developed in the Enhanced Chemiluminescence mixture and detected by ImageQuant™ LAS 4000 imaging system (GE). Density of protein bonds were calculated and analyzed by using imageJ software downloaded from the National Institute of Health website.

C4-2 cells = assay: Colony formation assay, C4-2 cells; format: cell-based; details: 2-63 2.5 μM plus BSO 5 μM, 24 h, then drug-free medium 8 days
Experimental: Colony formation assay. Cells (22Rv1 or C4-2) were seeded in six-well plates (1,000/well) and cultured overnight. Cells were then treated with 2-63 (1 μM in 22Rv1; 2.5 μM in C4-2), BSO (5 μM) alone or in combination for 24 h. Cells were washed and cultured in a drug-free medium (22Rv1, 11 days; C4-2, 8 days). On the last day, the medium was removed, cells were washed with PBS and fixed with methanol. The colonies were stained with crystal violet solution for 3 h at room temperature and air-dried.

Hsp90, Hsp70, HO-1 = assay: Western blotting of Hsp90, Hsp70 and HO-1 in VCaP cells; format: cell-based
Experimental: (§3) Western Blotting. […] Proteins in cell lysates (40 μg) were separated using electrophoresis on SDS-PAGE and transferred onto PVDF (polyvinylidenedifluoride) membranes. Membranes were blocked in 5% fat-free milk followed by incubation with primary antibodies overnight at 4° C., and the secondary horseradish peroxidase-conjugated anti-rabbit or anti-mouse antibodies. The blots were developed in the Enhanced Chemiluminescence mixture and detected by ImageQuant™ LAS 4000 imaging system (GE). Density of protein bonds were calculated and analyzed by using imageJ software downloaded from the National Institute of Health website.

RWPE-1 cells = assay: BSO pretreatment plus 2-63, MTT viability, RWPE-1 cells; details: BSO 100 μM plus 2-63 5 μM, 24 h
Experimental: Cell viability was then assessed using an MTT assay.
PCa cells (6×10^3 cells/well) were seeded into 96-well plates overnight and then treated with indicated compounds at indicated concentrations and time durations. The MTT (3-(4, 5-Dimethylthiazol-2-yl)-2,5-diphenyltetrazolium bromide) assay was performed according to the standard protocol. Briefly, MTT (0.5 mg/mL) was incubated with cells at 37° C. for 3 hours. Supernatant was removed, followed by the addition of dimethyl DMSO (100 μl). After incubation for 30 minutes at 37° C., absorbance was read at 570 nm on a microplate reader.

FL AR and AR-V7 [2] = target: T1, FL AR and AR-V7 (Homo sapiens, UniProt P10275); assay: Western blotting of FL AR and AR-V7 in VCaP cells; format: cell-based; details: full media, 16 h, 2-63, 12b 5 and 15 μM, Enz 10 μM
T1 construct: Whole cell lysates were subjected to Western blotting and probed with the indicated antibodies; endogenous in cells; host or cells: VCaP
T1 sequence (P10275 1-644 isoform P10275-3): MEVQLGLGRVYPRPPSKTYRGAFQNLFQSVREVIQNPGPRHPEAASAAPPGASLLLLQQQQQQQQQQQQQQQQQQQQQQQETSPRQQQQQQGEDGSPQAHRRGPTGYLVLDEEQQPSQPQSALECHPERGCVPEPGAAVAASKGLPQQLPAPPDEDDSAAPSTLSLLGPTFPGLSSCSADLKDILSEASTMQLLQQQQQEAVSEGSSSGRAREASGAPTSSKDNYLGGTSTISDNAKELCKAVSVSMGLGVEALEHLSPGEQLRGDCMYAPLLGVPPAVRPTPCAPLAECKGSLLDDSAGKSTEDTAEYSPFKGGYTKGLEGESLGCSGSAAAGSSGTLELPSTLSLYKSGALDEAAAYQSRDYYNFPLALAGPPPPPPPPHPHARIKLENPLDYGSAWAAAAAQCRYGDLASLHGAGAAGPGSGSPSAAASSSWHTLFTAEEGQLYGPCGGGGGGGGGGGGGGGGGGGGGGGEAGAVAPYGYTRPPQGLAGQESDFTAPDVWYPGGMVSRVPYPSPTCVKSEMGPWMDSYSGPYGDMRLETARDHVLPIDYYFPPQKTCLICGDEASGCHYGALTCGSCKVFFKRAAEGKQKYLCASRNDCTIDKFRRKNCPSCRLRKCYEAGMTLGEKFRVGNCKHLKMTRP
Experimental: as §3

FL AR and AR-V7 [3] = assay: Western blotting of FL AR and AR-V7 in VCaP cells; format: cell-based; details: 10 μM, 12 h time course
Experimental: as §3

Sp1 and c-Myc = assay: Western blotting of transcription factors in VCaP cells; format: cell-based; details: 5.0 and 10 μM, 24 h
Experimental: as §1, §2

LNCaP and RWPE-1 cells = assay: MTT viability, PCa LNCaP versus non-cancerous RWPE-1 cells; format: cell-based; details: 72 h, 2.5 to 10 μM
Description: Because of the better selectivity and water solubility of 2-63 over 12b, 2-63 was used for further in vitro characterization and mechanistic studies.

22Rv1 cells = assay: MTT viability assay, 22Rv1 cells; format: cell-based; details: 5 μM, 72 h
Description: Biological Characterization. ITC-ARi hybrid drugs effectively reduce the viability of PCa cells. By using an MTT assay, it was first examined if the newly synthesized hybrid drugs affect the viability of CRPC-relevant PCa cells. PCa VCaP cells naturally express abundant wild type FL AR as well as AR splice variants (e.g., AR-V7). These cells were, therefore, used as one of the cell culture models in this work to investigate the drug-caused viability loss and AR downregulation.

Question: For `CC(=O)N[C@H](CSC(=S)NCCCCCCc1ccc(N2C(=S)N(c3ccc(C#N)c(C(F)(F)F)c3)C(=O)C2(C)C)cn1)C(=O)O` [2-63, N-acetyl-S-((6-(5-(3-(4-cyano-3-(trifluoromethyl)phenyl)-5,5-dimethyl-4-oxo-2-thioxoimidazolidin-1-yl)pyridine-2-yl)hexyl)carbamothioyl)-D-cysteine], which “stability of FL AR and AR-V7 proteins” value (FL AR and AR-V7 [1]) is on record?
Answer: significantly reduced

Question: What about the “colony formation of C4-2 cells” value (C4-2 cells) of the same compound?
Answer: very efficiently suppressed colony formation

Question: And the “Hsp70 and HO-1 in time course” value (Hsp90, Hsp70, HO-1; 10 μM, 12 h time course)?
Answer: notably increased after 6 h

Question: What about the HO-1 protein level (Hsp90, Hsp70, HO-1; 16 h, 5 and 15 μM) of the same compound?
Answer: dose-dependently upregulated

Question: And the Hsp70 protein level (Hsp90, Hsp70, HO-1; 16 h, 5 and 15 μM)?
Answer: significantly induced

Question: And the Hsp90 protein level (Hsp90, Hsp70, HO-1; 16 h, 5 and 15 μM)?
Answer: did not change

Question: What about the “viability of RWPE-1 cells remaining” value (RWPE-1 cells) of the same compound?
Answer: Eighty

Question: And the AR-V7 expression (FL AR and AR-V7 [2])?
Answer: dose-dependently decreased

Question: What about the “FL AR and AR-V7 in time course” value (FL AR and AR-V7 [3]) of the same compound?
Answer: time-dependent decline

Question: And the “Sp1 and c-Myc protein level” value (Sp1 and c-Myc)?
Answer: dose-dependently reduced

Question: And the “differential anti-proliferative effect, LNCaP vs RWPE-1 cells” value (LNCaP and RWPE-1 cells)?
Answer: more tolerated by RWPE-1 cells

Question: What about the “relative potency in viability reduction, 22Rv1 cells” value (22Rv1 cells) of the same compound?
Answer: 12b>2-63>PEITC-NAC
